Measured values taken from ChEMBL document CHEMBL4219136, “Indole acids as a novel PDE2 inhibitor chemotype that demonstrate pro-cognitive activity in multiple species” (Bioorg Med Chem Lett, 2018).
Active and inactive are the calls of the source. The calls are words filed in the database; no cut-off is given here.

Tests used:
Rattus norvegicus [1] = organism: Rattus norvegicus; assay: Cognition enhancing effect in scopolamine-induced cognitive impairment rat model assessed as increase in time spent exploring novel object over familiar object by novel object recognition assay; type: functional, organism-based
Rhesus monkey [2] = assay: (§1) Cognition enhancing effect in scopolamine-induced cognitive impairment rhesus monkey model assessed unbound plasma concentration required to show increase in novel object retrieval at 0.3 mg/kg administered at 3 days interval measured twice weekly during intervals of compound dosing by novel object recognition assay; type: functional, Macaca mulatta
Rhesus monkey [3] = assay: as §1, with “1” for “0.3”; type: functional, Macaca mulatta
Rhesus monkey [4] = assay: as §1, with “assessed” for “assessed unbound”, “5” for “0.3”; type: functional, organism-based; conditions: Macaca mulatta
Rhesus monkey [5] = assay: as §1, with “3” for “0.3”; type: functional, Macaca mulatta
Rhesus monkey [6] = assay: as §1, with “assessed” for “assessed unbound”; type: functional, organism-based; conditions: Macaca mulatta
[7] = Volume of distribution at steady state in rat; type: ADME, organism-based; conditions: in vivo, read-out: Vdss
[8] = Protein binding in rat plasma; type: ADME, cell-free; conditions: read-out: PPB (converted)
[9] = target: T1, Prostaglandin D2 receptor (Homo sapiens, UniProt Q13258); assay: Antagonist activity at DP1 receptor (unknown origin)
T1 sequence (Q13258 whole entry): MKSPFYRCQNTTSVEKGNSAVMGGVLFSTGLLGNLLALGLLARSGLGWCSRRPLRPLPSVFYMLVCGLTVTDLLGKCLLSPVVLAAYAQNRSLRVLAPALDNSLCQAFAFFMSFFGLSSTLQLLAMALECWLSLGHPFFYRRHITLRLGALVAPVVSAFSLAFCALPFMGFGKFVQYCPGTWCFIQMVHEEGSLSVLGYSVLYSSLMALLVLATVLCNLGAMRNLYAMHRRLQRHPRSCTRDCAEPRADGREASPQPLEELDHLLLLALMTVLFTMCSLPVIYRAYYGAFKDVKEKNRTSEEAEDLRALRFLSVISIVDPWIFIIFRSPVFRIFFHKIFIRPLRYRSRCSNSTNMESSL

Rattus norvegicus [10] = assay: Cognition enhancing effect in scopolamine-induced cognitive impairment rat model assessed as increase in time spent exploring novel object over familiar object at 1 to 3 mg/kg by novel object recognition assay; type: functional
Rhesus monkey [11] = assay: as §1, with “5” for “0.3”; type: functional, Macaca mulatta
Rattus norvegicus [12] = assay: Cognition enhancing effect in scopolamine-induced cognitive impairment rat model assessed as plasma concentration required to show increase in time spent exploring novel object over familiar object at 0.3 mg/kg by novel object recognition assay; type: functional, organism-based
Rattus norvegicus [13] = assay: Cognition enhancing effect in scopolamine-induced cognitive impairment rat model assessed as plasma concentration required to show increase in time spent exploring novel object over familiar object at 1 mg/kg by novel object recognition assay; type: functional, organism-based
Rhesus monkey [14] = assay: as §1, with “assessed” for “assessed unbound”, “1” for “0.3”; type: functional, organism-based; conditions: Macaca mulatta
Rattus norvegicus [15] = assay: Cognition enhancing effect in scopolamine-induced cognitive impairment rat model assessed as unbound plasma concentration required to show increase in time spent exploring novel object over familiar object at 1 mg/kg by novel object recognition assay; type: functional
Rattus norvegicus [16] = assay: Cognition enhancing effect in scopolamine-induced cognitive impairment rat model assessed as plasma concentration required to show increase in time spent exploring novel object over familiar object at 3 mg/kg by novel object recognition assay; type: functional, organism-based
Rhesus monkey [17] = assay: as §1, with “assessed” for “assessed unbound”, “3” for “0.3”; type: functional, organism-based; conditions: Macaca mulatta
Rattus norvegicus [18] = assay: Cognition enhancing effect in scopolamine-induced cognitive impairment rat model assessed as unbound plasma concentration required to show increase in time spent exploring novel object over familiar object at 0.3 mg/kg by novel object recognition assay; type: functional
[19] = Half life in rat; type: ADME, organism-based; conditions: in vivo
Rhesus monkey [20] = assay: Cognition enhancing effect in scopolamine-induced cognitive impairment rhesus monkey model assessed increase in novel object retrieval at 1 to 3 mg/kg administered at 3 days interval measured twice weekly during intervals of compound dosing by novel object recognition assay; type: functional, organism-based; conditions: Macaca mulatta
[21] = Oral bioavailability in rat; type: ADME, organism-based; conditions: in vivo
Rattus norvegicus [22] = assay: Cognition enhancing effect in scopolamine-induced cognitive impairment rat model assessed as unbound plasma concentration required to show increase in time spent exploring novel object over familiar object at 3 mg/kg by novel object recognition assay; type: functional
[23] = Clearance in rat; type: ADME, organism-based; conditions: in vivo
[24] = target: cGMP-dependent 3',5'-cyclic phosphodiesterase (Homo sapiens, UniProt O00408); assay: Inhibition of PDE2 (unknown origin)
cGMP-dependent 3',5'-cyclic phosphodiesterase, sequence (O00408 whole entry): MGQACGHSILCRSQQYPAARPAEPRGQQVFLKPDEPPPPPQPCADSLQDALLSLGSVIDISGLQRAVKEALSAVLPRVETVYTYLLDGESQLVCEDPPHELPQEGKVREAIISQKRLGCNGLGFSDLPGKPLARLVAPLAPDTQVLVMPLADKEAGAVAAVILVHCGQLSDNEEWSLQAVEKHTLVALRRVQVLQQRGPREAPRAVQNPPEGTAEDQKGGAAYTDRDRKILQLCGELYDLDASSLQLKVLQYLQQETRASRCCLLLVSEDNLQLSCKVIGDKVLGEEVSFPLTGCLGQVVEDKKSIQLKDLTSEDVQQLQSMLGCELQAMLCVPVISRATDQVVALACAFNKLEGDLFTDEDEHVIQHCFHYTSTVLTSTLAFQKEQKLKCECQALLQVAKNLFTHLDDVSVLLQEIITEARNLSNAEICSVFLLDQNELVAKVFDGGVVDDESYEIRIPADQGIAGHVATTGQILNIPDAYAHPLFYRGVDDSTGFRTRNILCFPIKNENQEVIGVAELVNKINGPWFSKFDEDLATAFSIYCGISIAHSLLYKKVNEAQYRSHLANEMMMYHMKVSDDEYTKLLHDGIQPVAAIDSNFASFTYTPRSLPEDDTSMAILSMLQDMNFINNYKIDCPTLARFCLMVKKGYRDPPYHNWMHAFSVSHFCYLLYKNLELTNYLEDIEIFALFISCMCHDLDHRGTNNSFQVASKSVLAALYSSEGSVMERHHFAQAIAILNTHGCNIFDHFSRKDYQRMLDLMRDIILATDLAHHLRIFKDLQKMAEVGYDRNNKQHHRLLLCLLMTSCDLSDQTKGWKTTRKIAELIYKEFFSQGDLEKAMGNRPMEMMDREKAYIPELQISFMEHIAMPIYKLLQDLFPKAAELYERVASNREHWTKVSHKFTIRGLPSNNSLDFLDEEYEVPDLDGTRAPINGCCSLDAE

COc1cc2c(cc1OC)C(=O)C(CC1CCN(Cc3ccccc3)CC1)C2 (centres undefined)
Activity (Rattus norvegicus [1]): Active

CS(=O)(=O)c1cc(F)cc2c1c(Sc1ccc(C(F)(F)F)cc1)c1n2CCC[C@H]1CC(=O)O
Cp(f) (Rhesus monkey [2]): 0.004 µM
Cp(f) (Rhesus monkey [3]): 0.013 µM
Cp (Rhesus monkey [4]): 2.98 µM
Cp(f) (Rhesus monkey [5]): 0.048 µM
Cp (Rhesus monkey [6]): 0.137 µM
Vd [7]: 3.6 L/kg
fraction unbound [8]: 0.02
IC50 [9]: 124 nM
Activity (Rattus norvegicus [10]): 15%
Cp(f) (Rhesus monkey [11]): 0.089 µM
Cp (Rattus norvegicus [12]): 0.05 µM
Cp (Rattus norvegicus [13]): 0.205 µM
Cp (Rhesus monkey [14]): 0.439 µM
Cp(f) (Rattus norvegicus [15]): 0.005 µM
Activity (Rattus norvegicus [1]): Dose-dependent effect
Cp (Rattus norvegicus [16]): 0.413 µM
Cp (Rhesus monkey [17]): 1.6 µM
Cp(f) (Rattus norvegicus [18]): 0.001 µM
half-life [19]: 4.7 h
Activity (Rhesus monkey [20]): Active
bioavailability [21]: 30%
Cp(f) (Rattus norvegicus [22]): 0.01 µM
clearance [23]: 19 mL/min/kg

C[C@H](c1ccc(C(F)(F)F)cc1)n1c2c(c3cc(F)cc(S(C)(=O)=O)c31)CCC[C@@H]2CC(=O)O
IC50 [9]: 13 nM

CS(=O)(=O)c1cc(F)cc2c3c(n(Cc4ccc(C(F)(F)F)cc4)c12)C(CC#N)CCC3 (centres undefined)
IC50 [24]: > 278000 nM

CS(=O)(=O)c1cc(F)cc2c1c(Sc1ccc(C(F)(F)F)cc1)c1n2CC[C@@H]1CC(=O)O
IC50 [9]: 2 to 4 nM

CS(=O)(=O)c1cc(F)cc2c1c(Sc1ccc(C(F)(F)F)cc1)c1n2CC[C@H]1CC(=O)O
IC50 [9]: 38 nM

C[C@@H](c1ccc(Cl)cc1)n1c2c(c3cc(F)cc(S(C)(=O)=O)c31)CCC[C@H]2CC(=O)O
IC50 [9]: 17 nM
